Data reported in ChEMBL document CHEMBL1201862, “PubChem BioAssay data set” (2004).
Calls of active or inactive are those of the source.

How the values were obtained:
[1] = target: T1, Protein RecA (Mycobacterium tuberculosis, UniProt P9WHJ3); test: Fluorescence Cell-Free Homogeneous Dose Retest to Identify Inhibitors of RecA-Intein Splicing Activity. [Related pubchem assays (depositor defined):AID2097, AID2223, AID489010, AID492950]; type: functional
T1 sequence (P9WHJ3 whole entry): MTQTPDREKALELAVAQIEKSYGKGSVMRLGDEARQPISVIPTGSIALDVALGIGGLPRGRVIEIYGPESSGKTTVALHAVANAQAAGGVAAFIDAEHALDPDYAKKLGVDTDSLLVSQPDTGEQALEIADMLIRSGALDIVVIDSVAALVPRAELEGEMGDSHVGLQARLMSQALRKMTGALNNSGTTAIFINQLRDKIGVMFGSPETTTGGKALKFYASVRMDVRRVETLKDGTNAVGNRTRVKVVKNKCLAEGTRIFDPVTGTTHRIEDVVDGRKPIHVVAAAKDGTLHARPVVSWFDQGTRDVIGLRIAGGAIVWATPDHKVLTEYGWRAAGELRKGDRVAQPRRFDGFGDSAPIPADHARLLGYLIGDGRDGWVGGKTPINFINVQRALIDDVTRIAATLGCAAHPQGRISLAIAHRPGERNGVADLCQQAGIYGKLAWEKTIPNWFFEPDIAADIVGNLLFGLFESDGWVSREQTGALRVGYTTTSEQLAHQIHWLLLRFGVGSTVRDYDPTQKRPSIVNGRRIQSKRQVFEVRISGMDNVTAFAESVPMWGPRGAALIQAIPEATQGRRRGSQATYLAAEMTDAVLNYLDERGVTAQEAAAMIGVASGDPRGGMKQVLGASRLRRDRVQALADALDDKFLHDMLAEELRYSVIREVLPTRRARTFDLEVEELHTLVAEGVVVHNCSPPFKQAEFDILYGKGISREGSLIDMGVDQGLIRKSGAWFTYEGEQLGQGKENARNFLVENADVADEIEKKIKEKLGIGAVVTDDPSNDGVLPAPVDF

[2] = target: T2, fMet-Leu-Phe receptor (Homo sapiens, UniProt P21462); test: FPR ligands, dose response (AID 519); type: functional
T2 sequence (P21462 whole entry): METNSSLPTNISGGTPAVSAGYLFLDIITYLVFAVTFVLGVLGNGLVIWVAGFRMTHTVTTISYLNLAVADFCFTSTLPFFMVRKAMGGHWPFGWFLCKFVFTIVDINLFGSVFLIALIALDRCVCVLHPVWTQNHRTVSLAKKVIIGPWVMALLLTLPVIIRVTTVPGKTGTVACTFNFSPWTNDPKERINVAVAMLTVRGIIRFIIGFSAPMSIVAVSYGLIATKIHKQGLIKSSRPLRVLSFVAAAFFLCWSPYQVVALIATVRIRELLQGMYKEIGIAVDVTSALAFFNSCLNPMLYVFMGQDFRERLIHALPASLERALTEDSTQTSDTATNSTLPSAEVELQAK

[3] = target: T3, Replicative DNA helicase DnaB (Mycobacterium tuberculosis, UniProt P9WMR3); test: DnaB intein splicing inhibitors, dose response, biochemical, cell-free fluorescence (AID 449749); type: functional
T3 sequence (P9WMR3 whole entry): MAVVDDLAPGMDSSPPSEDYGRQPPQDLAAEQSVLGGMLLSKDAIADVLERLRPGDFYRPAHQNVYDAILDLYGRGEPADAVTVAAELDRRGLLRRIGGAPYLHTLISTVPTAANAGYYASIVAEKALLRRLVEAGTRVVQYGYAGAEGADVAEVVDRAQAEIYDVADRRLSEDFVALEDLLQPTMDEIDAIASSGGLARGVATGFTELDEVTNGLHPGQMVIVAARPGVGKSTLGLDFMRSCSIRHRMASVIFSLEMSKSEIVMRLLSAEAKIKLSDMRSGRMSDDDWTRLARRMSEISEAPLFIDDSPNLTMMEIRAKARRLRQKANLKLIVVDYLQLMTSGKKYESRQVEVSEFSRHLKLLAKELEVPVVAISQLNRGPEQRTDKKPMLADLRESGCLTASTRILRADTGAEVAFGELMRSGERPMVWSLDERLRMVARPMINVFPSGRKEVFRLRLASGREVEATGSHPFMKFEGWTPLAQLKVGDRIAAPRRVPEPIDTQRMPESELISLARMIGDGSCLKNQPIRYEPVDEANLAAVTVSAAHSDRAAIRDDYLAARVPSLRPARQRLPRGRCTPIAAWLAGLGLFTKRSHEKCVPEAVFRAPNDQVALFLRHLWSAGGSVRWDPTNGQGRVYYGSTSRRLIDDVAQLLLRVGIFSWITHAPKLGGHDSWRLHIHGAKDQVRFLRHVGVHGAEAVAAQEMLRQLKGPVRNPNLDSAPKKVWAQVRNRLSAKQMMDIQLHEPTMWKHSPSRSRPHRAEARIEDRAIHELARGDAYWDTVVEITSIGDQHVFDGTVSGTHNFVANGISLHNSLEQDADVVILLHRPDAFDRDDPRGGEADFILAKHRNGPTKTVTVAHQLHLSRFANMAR

[4] = cells; type: functional, cell-based
[5] = target: T4, Trace amine-associated receptor 1 (Homo sapiens, UniProt Q96RJ0); test: Counterscreen for agonists of the human trace amine associated receptor 1 (hTAAR1): Fluorescence-based cell-based high throughput dose response assay to identify hTAAR1 agonist that also desensitize TAAR1 receptor response.; type: functional
T4 sequence (Q96RJ0 whole entry): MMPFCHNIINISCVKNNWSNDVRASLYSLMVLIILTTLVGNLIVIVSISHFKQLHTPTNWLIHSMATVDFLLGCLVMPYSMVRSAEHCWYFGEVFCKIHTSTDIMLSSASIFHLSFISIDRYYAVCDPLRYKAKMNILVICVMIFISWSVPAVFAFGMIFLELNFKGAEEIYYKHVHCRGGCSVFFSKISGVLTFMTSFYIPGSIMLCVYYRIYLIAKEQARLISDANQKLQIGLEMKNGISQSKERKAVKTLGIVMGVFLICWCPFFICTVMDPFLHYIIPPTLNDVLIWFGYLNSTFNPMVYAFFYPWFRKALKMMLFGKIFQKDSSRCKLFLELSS

[6] = target: T4, Trace amine-associated receptor 1; test: Fluorescence-based cell-based high throughput dose response assay to identify agonists of the human trace amine associated receptor 1 (TAAR1).; type: functional
[7] = cells; type: functional, cell-based; remark: listed apart in the source
[8] = human group III sPLA2 inhibitors, dose response, biochemical, QFRET, IC50 (AID 743457);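 further: green fluorescence rise as the enzyme cleaves BODIPY PC-A2 in liposomes; potency for inhibition of the enzyme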
[9] = target: Nonstructural protein 1 (Influenza A virus, UniProt Q194T2); type: functional, Influenza A virus (A/California/07/2009(H1N1))
Sequence of Nonstructural protein 1 (Q194T2 whole entry): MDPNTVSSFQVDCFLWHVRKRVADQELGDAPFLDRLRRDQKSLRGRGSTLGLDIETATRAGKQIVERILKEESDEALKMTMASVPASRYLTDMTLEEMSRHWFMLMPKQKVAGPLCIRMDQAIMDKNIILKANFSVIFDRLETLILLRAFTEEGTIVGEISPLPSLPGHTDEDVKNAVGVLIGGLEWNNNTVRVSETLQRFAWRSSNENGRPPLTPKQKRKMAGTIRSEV

[10] = target: T5, Rac GTPase-activating protein 1 (Homo sapiens, UniProt Q9H0H5); test: MgcRacGAP GTPase-activating activity inhibitors, confirmation, biochemical, ADP Hunter fluorescence, primary and confirmatory (AID 624330); type: functional
T5 sequence (Q9H0H5 whole entry): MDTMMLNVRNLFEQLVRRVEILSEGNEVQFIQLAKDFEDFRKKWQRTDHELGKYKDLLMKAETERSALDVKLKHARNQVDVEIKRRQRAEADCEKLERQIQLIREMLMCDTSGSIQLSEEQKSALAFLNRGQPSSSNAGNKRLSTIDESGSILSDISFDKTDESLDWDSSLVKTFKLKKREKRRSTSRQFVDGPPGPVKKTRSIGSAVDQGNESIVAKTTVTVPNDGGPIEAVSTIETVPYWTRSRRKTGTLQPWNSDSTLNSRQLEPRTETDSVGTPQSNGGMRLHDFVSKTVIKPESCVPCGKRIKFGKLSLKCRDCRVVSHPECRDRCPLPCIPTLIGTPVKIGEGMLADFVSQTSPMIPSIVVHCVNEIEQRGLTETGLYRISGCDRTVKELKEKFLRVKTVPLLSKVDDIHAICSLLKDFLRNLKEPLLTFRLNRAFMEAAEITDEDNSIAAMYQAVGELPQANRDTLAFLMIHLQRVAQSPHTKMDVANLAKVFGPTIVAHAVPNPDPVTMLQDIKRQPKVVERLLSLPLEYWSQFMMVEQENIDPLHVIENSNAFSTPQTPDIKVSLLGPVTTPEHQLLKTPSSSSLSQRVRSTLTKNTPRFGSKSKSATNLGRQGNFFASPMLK

[11] = cells; type: functional, cell-based; details: HEK-CNG
[12] = target: T6, Galanin receptor type 3 (Homo sapiens, UniProt O60755); test: Fluorescence-based cell-based primary high throughput dose response assay to identify antagonists of the Galanin Receptor 3 (GalR3).; type: functional
T6 sequence (O60755 whole entry): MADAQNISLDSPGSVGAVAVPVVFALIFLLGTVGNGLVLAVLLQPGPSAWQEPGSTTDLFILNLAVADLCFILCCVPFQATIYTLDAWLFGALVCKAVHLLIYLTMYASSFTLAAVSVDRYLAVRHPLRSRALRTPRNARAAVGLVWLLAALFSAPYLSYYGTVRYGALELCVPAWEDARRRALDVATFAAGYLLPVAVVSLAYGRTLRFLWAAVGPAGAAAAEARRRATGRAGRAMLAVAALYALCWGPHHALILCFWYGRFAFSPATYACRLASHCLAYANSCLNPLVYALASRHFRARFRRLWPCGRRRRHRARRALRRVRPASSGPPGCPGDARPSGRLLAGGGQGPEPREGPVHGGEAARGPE

[13] = system: INS1; test: beta cell apoptosis inhibitors, cytokine rescue, dose response, luminescence, retest (AID 449756); type: functional, cell-based; details: Rattus norvegicus;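 further: cell death triggered by IL-1 beta plus TNF-alpha plus IFN-gamma mixture; protective hits raise ATP signal compared with cytokine alone wells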
[14] = target: Peroxisome proliferator-activated receptor gamma/Nuclear receptor coactivator 1 (Homo sapiens, UniProt P37231); test: TR-FRET dose response biochemical High Throughput Screening assay for agonists of the steroid receptor coactivator 1 (SRC-1) recruitment by the peroxisome proliferator-activated receptor gamma (PPAR gamma): non-selective agonists. [Related pubchem assays (depositor defined):AID1300, AID1808, AID504735, AID631]; type: protein assay
Sequence of Peroxisome proliferator-activated receptor gamma/Nuclear receptor coactivator 1 (P37231 whole entry): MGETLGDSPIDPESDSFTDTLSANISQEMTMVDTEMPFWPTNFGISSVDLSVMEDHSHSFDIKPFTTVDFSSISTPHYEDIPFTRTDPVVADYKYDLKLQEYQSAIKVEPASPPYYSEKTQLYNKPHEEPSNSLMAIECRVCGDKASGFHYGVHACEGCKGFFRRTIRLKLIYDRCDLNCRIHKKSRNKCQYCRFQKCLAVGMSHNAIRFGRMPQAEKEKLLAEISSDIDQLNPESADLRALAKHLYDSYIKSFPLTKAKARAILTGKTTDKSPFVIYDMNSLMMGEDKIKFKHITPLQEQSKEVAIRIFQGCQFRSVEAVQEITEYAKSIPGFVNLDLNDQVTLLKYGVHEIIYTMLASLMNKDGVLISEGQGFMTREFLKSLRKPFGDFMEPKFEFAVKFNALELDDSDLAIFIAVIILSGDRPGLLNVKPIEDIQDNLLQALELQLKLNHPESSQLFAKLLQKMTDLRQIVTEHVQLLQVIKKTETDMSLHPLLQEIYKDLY
Sequence of Peroxisome proliferator-activated receptor gamma/Nuclear receptor coactivator 1 (Q15788 whole entry, further chain): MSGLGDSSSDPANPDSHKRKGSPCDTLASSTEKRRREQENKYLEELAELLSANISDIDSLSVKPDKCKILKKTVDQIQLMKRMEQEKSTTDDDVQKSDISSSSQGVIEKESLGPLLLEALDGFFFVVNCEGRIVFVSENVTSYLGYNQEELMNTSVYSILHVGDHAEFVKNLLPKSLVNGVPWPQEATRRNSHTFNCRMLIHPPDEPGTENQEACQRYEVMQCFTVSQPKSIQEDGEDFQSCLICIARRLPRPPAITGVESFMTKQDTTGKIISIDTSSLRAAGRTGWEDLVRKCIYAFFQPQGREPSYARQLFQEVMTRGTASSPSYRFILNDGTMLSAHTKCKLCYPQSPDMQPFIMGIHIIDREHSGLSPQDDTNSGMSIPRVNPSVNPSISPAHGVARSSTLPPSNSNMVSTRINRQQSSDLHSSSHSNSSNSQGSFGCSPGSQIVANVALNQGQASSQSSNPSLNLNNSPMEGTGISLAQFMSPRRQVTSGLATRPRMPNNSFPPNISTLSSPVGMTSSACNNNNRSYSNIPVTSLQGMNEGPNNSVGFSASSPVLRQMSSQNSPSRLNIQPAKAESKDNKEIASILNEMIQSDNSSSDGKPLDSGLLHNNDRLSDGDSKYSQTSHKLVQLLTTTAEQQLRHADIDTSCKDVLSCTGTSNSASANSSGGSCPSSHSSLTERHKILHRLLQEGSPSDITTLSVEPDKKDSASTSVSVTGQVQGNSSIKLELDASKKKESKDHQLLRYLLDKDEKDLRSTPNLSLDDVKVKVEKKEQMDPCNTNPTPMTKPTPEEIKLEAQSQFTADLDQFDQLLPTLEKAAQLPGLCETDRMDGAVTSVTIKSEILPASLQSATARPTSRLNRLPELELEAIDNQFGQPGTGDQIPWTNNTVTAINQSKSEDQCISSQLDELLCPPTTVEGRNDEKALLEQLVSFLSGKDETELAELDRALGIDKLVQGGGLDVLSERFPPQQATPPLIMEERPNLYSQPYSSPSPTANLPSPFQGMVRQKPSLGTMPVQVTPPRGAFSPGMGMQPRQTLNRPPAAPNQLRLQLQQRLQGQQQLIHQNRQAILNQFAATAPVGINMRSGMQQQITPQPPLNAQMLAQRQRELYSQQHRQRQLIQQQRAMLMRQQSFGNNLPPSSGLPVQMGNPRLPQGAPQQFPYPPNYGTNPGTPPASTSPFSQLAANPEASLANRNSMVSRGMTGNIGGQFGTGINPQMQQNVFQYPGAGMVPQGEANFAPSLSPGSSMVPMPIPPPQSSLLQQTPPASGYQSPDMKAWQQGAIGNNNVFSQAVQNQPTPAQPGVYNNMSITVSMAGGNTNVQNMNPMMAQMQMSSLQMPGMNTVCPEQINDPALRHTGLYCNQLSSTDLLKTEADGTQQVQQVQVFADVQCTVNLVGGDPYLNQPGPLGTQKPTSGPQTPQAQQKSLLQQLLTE

[15] = target: Peroxisome proliferator-activated receptor gamma/Nuclear receptor coactivator 2 (Homo sapiens, UniProt P37231); test: TR-FRET dose response biochemical High Throughput Screening assay for agonists of the steroid receptor coactivator 2 (SRC-2) recruitment by the peroxisome proliferator-activated receptor gamma (PPAR gamma): non-selective agonists. [Related pubchem assays: 1297, 1032 ]; type: functional
Sequence of Peroxisome proliferator-activated receptor gamma/Nuclear receptor coactivator 2 (P37231 whole entry): as the sequence (P37231 whole entry) above
Sequence of Peroxisome proliferator-activated receptor gamma/Nuclear receptor coactivator 2 (Q15596 whole entry, further chain): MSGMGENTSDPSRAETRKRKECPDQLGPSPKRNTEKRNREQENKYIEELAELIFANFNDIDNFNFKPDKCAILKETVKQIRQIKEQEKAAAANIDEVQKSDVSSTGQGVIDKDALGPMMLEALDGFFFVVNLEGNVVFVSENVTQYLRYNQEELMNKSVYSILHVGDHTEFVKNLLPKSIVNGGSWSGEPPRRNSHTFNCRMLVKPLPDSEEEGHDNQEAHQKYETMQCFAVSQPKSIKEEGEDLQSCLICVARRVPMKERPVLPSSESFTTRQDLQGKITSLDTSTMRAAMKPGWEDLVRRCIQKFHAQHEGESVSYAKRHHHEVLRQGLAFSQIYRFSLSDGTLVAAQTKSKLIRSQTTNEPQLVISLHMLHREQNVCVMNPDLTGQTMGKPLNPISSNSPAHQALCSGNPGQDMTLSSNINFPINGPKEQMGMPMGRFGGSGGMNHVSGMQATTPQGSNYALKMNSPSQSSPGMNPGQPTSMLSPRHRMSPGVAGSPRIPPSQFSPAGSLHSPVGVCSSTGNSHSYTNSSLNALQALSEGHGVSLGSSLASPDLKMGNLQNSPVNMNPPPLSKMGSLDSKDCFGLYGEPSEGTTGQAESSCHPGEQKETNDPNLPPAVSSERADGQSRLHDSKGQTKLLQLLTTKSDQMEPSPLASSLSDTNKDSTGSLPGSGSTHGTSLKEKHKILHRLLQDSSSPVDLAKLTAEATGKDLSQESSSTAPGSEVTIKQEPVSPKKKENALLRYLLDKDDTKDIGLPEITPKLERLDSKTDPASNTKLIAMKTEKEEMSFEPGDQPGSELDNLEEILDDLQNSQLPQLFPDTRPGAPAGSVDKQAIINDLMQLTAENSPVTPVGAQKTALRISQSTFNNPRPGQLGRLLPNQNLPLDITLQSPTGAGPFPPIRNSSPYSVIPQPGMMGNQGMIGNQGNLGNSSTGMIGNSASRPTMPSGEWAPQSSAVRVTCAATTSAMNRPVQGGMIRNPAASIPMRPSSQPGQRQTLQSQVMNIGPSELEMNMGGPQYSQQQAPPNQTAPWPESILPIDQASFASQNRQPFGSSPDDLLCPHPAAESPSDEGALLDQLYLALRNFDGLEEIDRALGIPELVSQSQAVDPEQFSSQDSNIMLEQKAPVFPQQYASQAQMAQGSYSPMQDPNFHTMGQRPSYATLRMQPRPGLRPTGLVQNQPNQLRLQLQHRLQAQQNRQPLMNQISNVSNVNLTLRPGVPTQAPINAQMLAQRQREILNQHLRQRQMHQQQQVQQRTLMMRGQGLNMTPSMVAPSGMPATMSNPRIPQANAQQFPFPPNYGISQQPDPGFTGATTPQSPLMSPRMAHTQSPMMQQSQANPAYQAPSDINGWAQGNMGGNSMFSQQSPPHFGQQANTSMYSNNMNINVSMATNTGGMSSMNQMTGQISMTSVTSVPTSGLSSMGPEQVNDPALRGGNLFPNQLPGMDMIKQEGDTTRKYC

[16] = target: Peroxisome proliferator-activated receptor gamma/Nuclear receptor coactivator 3 (Homo sapiens, UniProt P37231); test: TR-FRET dose response biochemical High Throughput Screening assay for agonists of the steroid receptor coactivator 3 (SRC-3) recruitment by the peroxisome proliferator-activated receptor gamma (PPAR gamma): non-selective agonists. [Related pubchem assays: 1301 (Confirmation screen.), 1048 (Primary screen.)]; type: functional
[17] = A549 cell cytotoxicity, dose response, cytotoxicity control, plate reader, cherry-pick, antagonist series (AID 743412); type: functional, cell-based
[18] = MC4R antagonists, dose response, counter-screen for LGR2 antagonist project, cell-based, plate reader, cherry pick (AID 743444); type: functional;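 further: transfected HEK 293 cells stimulated with alpha-MSH peptide; potency of inhibitors of the alpha-MSH evoked signal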
[19] = LGR2 antagonists, dose response, cell-based, HEK293, CRE-luciferase reporter, cherry pick, set 2 (AID 743343); type: functional;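 further: transfected cells were stimulated with diluted bursicon conditioned medium after compound addition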
[20] = HepG2 cell cytotoxicity, dose response, cytotoxicity control, plate reader, cherry-pick, antagonist series (AID 743416); type: functional, cell-based
[21] = system: HEK293; test: inhibitors of LMP1-driven NF-kB reporter, dose response, cell-based, HEK293, luciferase, cherry-pick (AID 588343); type: functional; details: Homo sapiens

CSCCC1C(C#N)=C(N)Oc2[nH]nc(-c3cccs3)c21 (stereo not drawn)
EC50 [1]: 1.43 µM (active)
Ki [2]: > 66.7 µM (inactive)
AC50 [3]: 3.12 µM (active)

Cc1cccc(C(CC(=O)NCCc2ccccc2)c2ccccc2)c1O (stereo not drawn)
EC50 [4]: > 29.9 µM (inactive)
IC50 [5]: 4.62 µM (active)
EC50 [6]: 3.5 µM (active)
IC50 [7]: > 29.9 µM (inactive)

CN(CCc1ccccc1)c1cc2c(c3c1ccn3C)C1CCC2O1 (stereo not drawn)
EC50 [4]: > 29.9 µM (inactive)
IC50 [5]: 5.22 µM (active)
EC50 [6]: 1.18 µM (active)
IC50 [7]: > 29.9 µM (inactive)

COc1cc(OC)c(C2Nc3cccc4cccc(c34)N2)c(OC)c1
IC50 [8]: 83.1 µM (inactive)
IC50 [9]: > 100 µM (active)
IC50 [10]: 65.2 µM (active)

CCOC(=O)CCN(c1ccccc1)S(=O)(=O)c1ccc(-c2ccc(O)nn2)s1
EC50 [11]: > 29.9 µM (inactive)
IC50 [12]: 4.41 µM (active)

COCCn1c(SCCCC(=O)c2ccc(Br)cc2)nnc1-c1ccncc1
EC50 [11]: > 29.9 µM (inactive)
IC50 [12]: 5.94 µM (active)

Cc1ccc(C(=O)NC(=S)/C=C2\N(C)c3ccccc3C2(C)C)cc1
IC50 [8]: > 122 µM (inactive)
AC50 [13]: 2.33 µM (active)

Cc1onc(-c2ccccc2)c1-c1nc2ccccc2c(=O)o1
EC50 [1]: 1.11 µM (active)
AC50 [3]: 1.31 µM (active)
EC50 [11]: > 29.9 µM (inactive)
IC50 [12]: > 29.9 µM (inactive)

COc1cccc(C2C(C(=O)c3ccc(OC)c(OC)c3)=C(O)C(=O)N2c2cc(C)on2)c1 (stereo not drawn)
EC50 [14]: > 79.4 µM (inactive)
Ki [2]: > 66.7 µM (inactive)
EC50 [15]: > 79.4 µM (not active)
EC50 [16]: > 79.4 µM (not active)

Cc1ccc(C(=O)NCCc2cccs2)cc1
AC50 [17]: > 52 µM (inactive)
AC50 [18]: 3.74 µM (active)
AC50 [19]: 3.13 µM (active)
AC50 [20]: > 52 µM (inactive)
AC50 [21]: 2.28 µM (active)

COc1cc(C2C(C(=O)c3ccc(C)o3)=C(O)C(=O)N2Cc2cccnc2)ccc1O (stereo not drawn)
Ki [2]: > 66.7 µM (inactive)

CC/C(NCCc1ccccc1)=C1/C(=O)NC(=O)N(C2CCCCC2)C1=O
EC50 [4]: > 29.9 µM (inactive)
IC50 [5]: 6.23 µM (active)
EC50 [6]: 2.87 µM (active)
IC50 [7]: > 29.9 µM (inactive)
